Source: patent US12428394B2, “2,4-disubstituted pyrimidine derivative, preparation method therefor and use thereof” (CHENGDU ZENITAR BIOMEDICAL TECHNOLOGY CO., LTD., priority 2019, dated 2025)

Experiments:
[1] = tested on: Ba/F3-EpoR-JAK2V617F cells; assay: Ba/F3-EpoR-JAK2V617F-driven malignant tumor mouse model; assay type: in vivo, Babl/c-nude mice; settings: 30 mg/Kg, oral twice a day
Description: Babl/c-nude mice (Beijing Huafukang Biotechnology Co., Ltd.) were received and acclimated to the environment until these mice were normalized in diet and activity, and the modeling began. Ba/F3-EpoR-JAK2V617F cells (State Key Laboratory of Biotherapy, Sichuan University) were routinely incubated and grew to 80% fusion degree. Then the cells were centrifuged at 1000 rpm for 3 min., collected, resuspended by PBS and counted by a cell counter; while the survival rate of the cells was calculated. Only when the proportion of living cells exceeds 90%, can the cells be used in the experiment, with the cell concentration adjusted to 1×10^7 cells/mL. After the cells were collected, the cell suspension was pre-cooled on ice. Each mouse was inoculated as per 1.0×10^6, and batch induction modeling was carried out.

JAK2V617F = assay: JAK2V617F-induced myelofibrosis mouse model; assay type: in vivo, BALB/c mice; settings: 30 mg/Kg, oral twice a day, after 8 weeks of treatment
Description: JAK2 mutant JAK2V617F gene vector MSCV-JAK2V617F-GFP (Chengdu Wandao Biotechnology Development Co., Ltd.) and BALB/c mice (Jiangsu Jicui Yaokang Biotechnology Co., Ltd.) were provided as donors. The mouse bone marrow cells were sampled and infected with JAK2V617F virus, and the infected cells were reinfused into BALB/c recipient mice irradiated by X-rays through tail vein. Then, the JAK2V617F-positive myelofibrosis mouse model was induced. […] The administration route was oral administration twice a day, and the mice in the blank control group and the model group took the same volume of normal saline orally. […] Therefore, modifications or improvements made without departing from the spirit of the present invention are within the scope of protection of the present invention.

**Q.** Which results are given for `Cc1cnc(Nc2ccc(OCCN3CCCC3)cc2)nc1Nc1cccc(S(=O)(=O)NC(C)(C)C)c1` [Fedratinib, reference compound]?
**A.** inhibition of spleen growth [1]: 40.23%; inhibition of growth rate of spleen (JAK2V617F): 29.46%
